Measured values from patent publication US11725001B2, “Bicyclic compound and use thereof” (SK BIOPHARMACEUTICALS CO., LTD., priority 2019, dated 2023).
pIC50: −log10 of the molar value.

These compounds were tested on SDMA levels in U87MG tumor (assay: Test for in vivo target inhibitory activity (SDMA levels in U87MG tumor)). Settings: U87MG tumor implanted subcutaneously in nude mice, oral 25 or 50 mg/kg 1-2 times daily for one week.
Method: Test for In Vivo Target Inhibitory Activity
After U87MG tumor cells were implanted subcutaneously in nude mice, a PRMT5 inhibitor was administered orally (25 or 50 mg/kg) 1-2 times daily for one week, and then the degree to which SDMA levels in the tumor decreased was measured.
Reagents: Bradford's solution (Catalog No. 500-0006) was purchased from Bio-rad (USA). SDMA antibody (Catalog No. 13222s) was purchased from Cell Signaling Technology (USA). SmD3 antibody (Catalog No. ap12451a) was purchased from Abgent (USA), and secondary antibody (Catalog No. ab6721) and TMB substrate (Catalog No. ab210902) were purchased from Abcam (UK).
Experimental procedure: The tumor tissues transplanted into the mice were excised, the cells were lysed, and then quantified with Bradford's solution. 5-10 μg of protein per sample was diluted with carbonate-bicarbonate buffer and dispensed into a 96-well plate and reacted at room temperature for 2 hours. After washing with phosphate buffered saline (PBST) containing 0.05% Tween-20 3 times, 200 μL of PBST containing 5% bovine serum albumin (BSA-PBST) was added and reacted at room temperature for 2 hours. After washing with PBST 3 times, the SDMA antibody and the SmD3 antibody were diluted in BSA-PBST, and 100 μL of each was dispensed onto the plate and reacted at 4° C. overnight. After washing with PBST 3 times the next day, 100 μL of the secondary antibody diluted in BSA-PBST was added and reacted at room temperature for 1 hour. After washing with PBST 3 times, 100 μL of TMB substrate was added and reacted at room temperature for 10-20 minutes, and 100 μL of 1N sulfuric acid solution was added to terminate the reaction. Then, the absorbance at 450 nm was measured to calculate the degree of SDMA inhibition by the compound. (+++: more than 70%, ++: more than 30% and 70% or less, +: 30% or less)

Compound	SDMA inhibition (%)
O=C1c2ccc(Br)cc2CCCN1C[C@H](O)CN1CCc2ccccc2C1 [Example 155, 7-bromo-2-[(2R)-3-(3,4-dihydro-1H-isoquinolin-2-yl)-2-hydroxy-propyl]-4,5-dihydro-3H-2-benzazepin-1-one]	+ (+: 30% or less)
O=C1c2ccc(CN3CCOCC3)cc2OCCN1C[C@H](O)CN1CCc2ccccc2C1 [Example 22, 4-[(2R)-3-(3,4-dihydro-1H-isoquinolin-2-yl)-2-hydroxy-propyl]-8-(morpholinomethyl)-2,3-dihydro-1,4-benzoxazepin-5-one]	+++ (+++: more than 70%)
CN1CCC(Oc2ccc3c(c2)OC(C)(C)CN(C[C@H](O)CN2CCc4ccccc4C2)C3=O)CC1 [Example 112, 4-[(2R)-3-(3,4-dihydro-1H-isoquinolin-2-yl)-2-hydroxy-propyl]-2,2-dimethyl-8-[(1-methyl-4-piperidyl)oxy]-3H-1,4-benzoxazepin-5-one]	+++ (+++: more than 70%)
CN1CCC(Oc2ccc3c(c2)OCCN(C[C@H](O)CN2CCc4ccccc4C2)C3=O)CC1 [Example 87, 4-[(2R)-3-(3,4-dihydro-1H-isoquinolin-2-yl)-2-hydroxy-propyl]-8-[(1-methyl-4-piperidyl)oxy]-2,3-dihydro-1,4-benzoxazepin-5-one]	+++ (+++: more than 70%)
O=C1c2ccc(OC3CCN(C4COC4)CC3)cc2OCCN1C[C@H](O)CN1CCc2ccccc2C1 [Example 92, 4-[(2R)-3-(3,4-dihydro-1H-isoquinolin-2-yl)-2-hydroxy-propyl]-8-[[1-(oxetan-3-yl)-4-piperidyl]oxy]-2,3-dihydro-1,4-benzoxazepin-5-one]	+++ (+++: more than 70%)
CCN1CCC(Oc2ccc3c(c2)OCCN(C[C@H](O)CN2CCc4ccccc4C2)C3=O)CC1 [Example 88, 4-[(2R)-3-(3,4-dihydro-1H-isoquinolin-2-yl)-2-hydroxy-propyl]-8-[(1-ethyl-4-piperidyl)oxy]-2,3-dihydro-1,4-benzoxazepin-5-one]	+++ (+++: more than 70%)

The compounds below were run against PRMT5-MEP50 enzyme complex (Homo sapiens (Human), UniProt O14744) (assay: PRMT5 enzyme activity in vitro assay (methylation of histone H4R3, ELISA absorbance at 450 nm)). Settings: SAM, histone H4 peptide, 2 hours at room temperature, 8 points from 10 μM to 0.128 nM.
Sequence of PRMT5-MEP50 enzyme complex (O14744 2-637): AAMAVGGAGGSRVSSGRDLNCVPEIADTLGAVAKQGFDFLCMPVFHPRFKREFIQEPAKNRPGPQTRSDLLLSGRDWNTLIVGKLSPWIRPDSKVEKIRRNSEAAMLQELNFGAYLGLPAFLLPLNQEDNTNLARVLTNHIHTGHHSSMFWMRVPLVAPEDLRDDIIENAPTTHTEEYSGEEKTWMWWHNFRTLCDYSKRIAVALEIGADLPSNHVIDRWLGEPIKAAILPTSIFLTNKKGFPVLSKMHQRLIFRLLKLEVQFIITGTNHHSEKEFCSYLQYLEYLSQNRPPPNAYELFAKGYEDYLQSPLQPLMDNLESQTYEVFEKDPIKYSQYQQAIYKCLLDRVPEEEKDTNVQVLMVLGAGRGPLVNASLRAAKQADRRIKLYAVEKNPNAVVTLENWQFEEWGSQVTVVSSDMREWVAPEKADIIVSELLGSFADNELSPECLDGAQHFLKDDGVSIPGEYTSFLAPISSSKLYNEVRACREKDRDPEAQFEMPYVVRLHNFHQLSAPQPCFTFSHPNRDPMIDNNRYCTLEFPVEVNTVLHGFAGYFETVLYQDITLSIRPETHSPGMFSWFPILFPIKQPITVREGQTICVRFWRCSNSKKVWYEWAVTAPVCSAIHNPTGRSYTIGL
Sequence of PRMT5-MEP50 enzyme complex (Q9BQA1 2-342 partner): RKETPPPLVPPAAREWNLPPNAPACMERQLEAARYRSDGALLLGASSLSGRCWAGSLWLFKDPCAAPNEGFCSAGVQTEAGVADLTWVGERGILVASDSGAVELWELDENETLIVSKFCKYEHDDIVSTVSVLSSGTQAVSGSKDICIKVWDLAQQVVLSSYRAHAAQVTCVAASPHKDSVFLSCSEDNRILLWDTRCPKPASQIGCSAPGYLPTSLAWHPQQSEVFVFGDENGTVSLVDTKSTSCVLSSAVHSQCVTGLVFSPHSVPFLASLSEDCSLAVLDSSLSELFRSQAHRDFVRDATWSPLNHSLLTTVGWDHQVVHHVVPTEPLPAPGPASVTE
Format: biochemical
Method: Method for Measuring Enzyme Activity
In vitro assay: PRMT5-MEP50 enzyme complex, cofactor S-adenosylmethionine (SAM) and histone H4 peptide were reacted in vitro, and methylation of arginine (H4R3)—which is the third amino acid of histone H4—was measured in order to measure the enzyme activity of PRMT5.
S-adenosylmethionine was purchased from NEB (New England Biolabs, USA, Catalog No. B9003S).
Experimental procedure: The histone H4 peptide was diluted with carbonate-bicarbonate buffer and prepared to 100 μg/mL, and then dispensed onto the plate per 100 μL and reacted at 37° C. for 1 hour. PRMT5-MEP50 enzyme complex and S-adenosylmethionine were diluted with histone methyltransferase reaction buffer to prepare 5 μg/mL and 2 μM, respectively, and then 20 μL of PRMT5-MEP50 enzyme complex and 25 μL of S-adenosylmethionine were dispensed onto the plate prepared above. 5 μL of the compound diluted with 10% dimethyl sulfoxide solution was added thereto and reacted at room temperature for 2 hours (final volume=50 μL). […] After preparing the primary antibody by diluting 1:2000 with blocking buffer, 100 μL was added to the plate and reacted at room temperature for 1 hour. […] Then, the absorbance at 450 nm was measured to calculate the IC50 value of the compound. […]

Compound	pIC50
COc1ccc2c(c1)OCCN(CC(O)CN1CCc3ccccc3C1)C2=O (centres unmarked) [Example 1, 4-[3-(3,4-dihydro-1H-isoquinolin-2-yl)-2-hydroxy-propyl]-8-methoxy-2,3-dihydro-1,4-benzoxazepin-5-one]	6.00 to 7.00
CCN1C(=O)CN(C[C@H](O)CN2CCc3ccccc3C2)C(=O)c2ccc(Br)cc21 [Example 158, 8-bromo-4-[(2R)-3-(3,4-dihydro-1H-isoquinolin-2-yl)-2-hydroxy-propyl]-1-ethyl-3H-1,4-benzodiazepin-2,5-dione]	6.00 to 7.00
